Assay [1] has as its target T1, serotonin S2 (5-HT2) receptors (Rattus norvegicus, UniProt P14842).
T1 construct: cortical tissue is dissected and weighed; from tissue; host or cells: cerebral cortex membranes of male Wistar (Mol:Wist) rats
Briefly: inhibition of 3H-ketanserin binding to serotonin S2 (5-HT2) receptors in rat cortex in vitro. As to conditions: 3H-ketanserin 0.5 nM, rat cortex membranes, read-out: Binding IC50, 3H Ket.

The next assay deals with α1 adrenoceptors. Description: inhibition of 3H-prazosin binding to α1 adrenoceptors in rat brain in vitro. The settings on record: 3H-prazosin 0.25 nM, rat brain membranes, read-out: Binding IC50, 3H Praz. How it is done:
INHIBITION OF ^3 H-PRAZOSIN BINDING TO α1 ADRENOCEPTORS IN RAT BRAIN IN VITRO
Method and results in Hyttel and Larsen, J. Neurochem, 44, 1615-1622, 1985; Skarsfeldt and Hyttel, Eur. J. Pharmacol. 125, 323-340, 1986.
Male Wistar (Mol:Wist) rats (125-200 g) are sacrificed and brain tissue is dissected and weighed. The tissue is homogenized (Ultra Turrax, 10 sec.) in 10 ml of ice-cold […] Tris buffer pH 7.7 (at 25° C.). The homogenate is centrifuged twice at 20,000 g for 10 min. at 4° C. with rehomogenization of the pellet in 10 ml ice-cold buffer. The final pellet is homogenized in 400 vol (w/v) ice-cold buffer.
Incubation tubes kept on ice in triplicate receive 100 μl of drug solution in water (or water for total binding) and 4000 μl of tissue suspension (final tissue content corresponds to 10 mg original tissue). The binding experiment is initiated by addition of 100 μl of ^3 H-Prazosin (final concentration 0.25 nM) and by placing the tubes in a 25° C. water bath. After incubation for 20 min. the samples are filtered under vacuum (0-50 mBar) through Whatman GF/F filters (25 mm). The tubes are rinsed with 5 ml ice-cold buffer which then are poured on the filters. Thereafter, the filters are washed with 5 ml of buffer. The filters are placed in counting vials and 4 ml of appropriate scintillation fluid (e.g. Picofluor™15) are added. After shaking for 1 h and storage 2 hrs in the dark the content of radioactivity is determined by liquid scintillation counting. Specific binding is obtained by subtracting the nonspecific binding in the presence of 1 μM of Prazosin.
For determination of the inhibition of binding five concentrations of drugs covering 3 decades are used.
The measured cpm are plotted against drug concentration on semilogarithmic paper and the best fitting S-shaped curve is drawn. The IC50 value is determined as the concentration at which the binding is 50% of the total binding in control samples minus the nonspecific binding in the presence of 1 μM of Prazosin. ^3 H-Prazosin=[furoyl-5-^3 H]-Prazosin from New England Nuclear, specific activity approximately 20 Ci/mmol.

The next assay addresses T2, 5-HT2 (Rattus norvegicus, UniProt P14842).
T2 construct: Four rats, male Wistar (Mol:Wist) SPF rats weighing 170-240 g; from tissue; host or cells: living male Wistar (Mol:Wist) SPF rats (in vivo, endogenous receptor)
Briefly: quipazine inhibition (quipazine-induced head twitches in rats). The assay is classed as in vivo. As to conditions: sc, 24 h, read-out: Quipazine inhibition ED50, 24h (sc).

The results in this text go back to patent US5216001A, “Indole derivatives” (H. Lunbeck A/S, priority 1990, dated 1993).

T1 sequence (P14842 whole entry): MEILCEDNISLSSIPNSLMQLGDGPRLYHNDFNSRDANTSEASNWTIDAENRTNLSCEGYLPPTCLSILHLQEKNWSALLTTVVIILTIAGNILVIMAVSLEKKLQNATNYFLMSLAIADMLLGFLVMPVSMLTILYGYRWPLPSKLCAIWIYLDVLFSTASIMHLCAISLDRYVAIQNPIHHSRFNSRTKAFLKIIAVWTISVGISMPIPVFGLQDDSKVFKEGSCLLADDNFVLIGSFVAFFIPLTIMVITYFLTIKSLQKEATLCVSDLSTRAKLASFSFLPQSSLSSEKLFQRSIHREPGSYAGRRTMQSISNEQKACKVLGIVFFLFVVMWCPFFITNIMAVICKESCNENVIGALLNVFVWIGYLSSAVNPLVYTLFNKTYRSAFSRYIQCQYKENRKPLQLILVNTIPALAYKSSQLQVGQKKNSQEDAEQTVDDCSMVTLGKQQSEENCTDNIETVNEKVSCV
T2 sequence (P14842 whole entry): as above

With `CC(C)N1CCN(CCN2CCC(c3cn(-c4ccc(F)cc4)c4cc(Cl)ccc34)CC2)C1=O` [Compound 4a, 6-chloro-1-(4-fluorophenyl)-3-[1-[2-[3-(2-propyl)-2-imidazolidinon-1-yl]ethyl]-4-piperidyl]-1H-indole], the IC50 – broadly, the concentration that gives 50% inhibition – in assay [1] worked out at 1.5 nM; at α1 adrenoceptors, 70 nM.

On to `Cc1ccc2c(C3CCN(CCN4CCNC4=O)CC3)cn(-c3ccc(F)cc3)c2c1` [Compound 4g, 1-(4-fluorophenyl)-3-[1-[2-(2-imidazolidinon-1-yl)ethyl]-4-piperidyl]-6-methyl-1H-indole], for which the concentration for half-maximal inhibition (IC50) is 0.8 nM in assay [1] and 24 nM on α1 adrenoceptors.

With `Cc1ccc2c(C3CCN(CCN4CCN(C(C)C)C4=O)CC3)cn(-c3ccc(F)cc3)c2c1` [Compound 5a, 1-(4-fluorophenyl)-6-methyl-3-[1-[2-[3-(2-propyl)-2-imidazolidinon-1-yl]ethyl]-4-piperidyl]-1H-indole], the IC50 in assay [1] is 1.6 nM; on α1 adrenoceptors it was 85 nM.

As to `OCCN1CCN(c2cn(-c3ccc(F)cc3)c3ccc(C(F)(F)F)cc23)CC1` [Lu 21-152, 1-(4-fluorophenyl)-3-[4-(2-hydroxyethyl)-1-piperazinyl]-5-trifluoromethyl-1H-indole, reference compound], the median effective dose (ED50) (usually the dose at which the effect has come halfway, by size or by number of responders) on 5-HT2 is 0.15 µmol/kg. The IC50 amounted to 1.4 nM in assay [1] and 7.6 nM at α1 adrenoceptors.
